We go through 39 compounds from US9505710B2 (priority 2015, dated 2016).

BoNT/A LC1-429, sequence (P0DPI1 1-429, added parts left off): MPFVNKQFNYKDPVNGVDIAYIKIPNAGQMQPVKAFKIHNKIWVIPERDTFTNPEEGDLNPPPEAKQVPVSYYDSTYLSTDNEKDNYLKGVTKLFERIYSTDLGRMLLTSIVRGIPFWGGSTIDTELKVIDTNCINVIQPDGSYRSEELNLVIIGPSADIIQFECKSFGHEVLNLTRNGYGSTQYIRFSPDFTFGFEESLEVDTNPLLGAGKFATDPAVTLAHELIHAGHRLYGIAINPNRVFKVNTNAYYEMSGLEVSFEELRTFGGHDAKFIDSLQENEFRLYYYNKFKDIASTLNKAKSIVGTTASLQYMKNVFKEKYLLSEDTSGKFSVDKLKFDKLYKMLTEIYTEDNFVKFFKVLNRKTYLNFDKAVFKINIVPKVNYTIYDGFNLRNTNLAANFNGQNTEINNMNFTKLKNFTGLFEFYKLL

This assay concerns the target BoNT/A LC1-429 (Clostridium botulinum, UniProt P0DPI1). The experiment in a line: biochemical. Particulars: BoNT/A Ki (nM).
A word on the Ki: it is the equilibrium dissociation constant of an inhibitor or competing ligand from its target. Lower therefore signals tighter binding. `CO[C@H](CC(=O)NO)[C@H](Cc1ccc(F)cc1)c1ccc(Br)cc1` [Example 1-3, (3R,4R)-4-(4-bromophenyl)-5-(4-fluorophenyl)-N-hydroxy-3-methoxypentanamide] had a Ki of 9.36 nM.

In the case of `CCO[C@H](CC(=O)NO)[C@H](Cc1ccc(CO)cc1)c1ccc(F)cc1` [Example 1-9, (3R,4R)-3-ethoxy-4-(4-fluorophenyl)-N-hydroxy-5-(4-(hydroxymethyl)phenyl)pentanamide], affinity was put at a Ki of 299 nM.

The compound `CO[C@H](CC(=O)NO)[C@H](Cc1ccc(F)cc1C)c1ccc(Br)cc1` [Example 2-1, (3R,4R)-4-(4-bromophenyl)-5-(4-fluoro-2-methylphenyl)-N-hydroxy-3-methoxypentanamide] yielded a Ki of 235 nM.

`CO[C@H](CC(=O)NO)[C@H](Cc1ccc(F)c(C)c1)c1ccc(Br)cc1` [Example 2-2, (3R,4R)-4-(4-bromophenyl)-5-(4-fluoro-3-methylphenyl)-N-hydroxy-3-methoxypentanamide] registered a Ki of 3.4 nM.

In turn, `CO[C@@H](CC(=O)NO)[C@H](Cc1ccc(F)cc1C)c1ccc(Br)cc1` [Example 2-3, (3S,4R)-4-(4-bromophenyl)-5-(4-fluoro-2-methylphenyl)-N-hydroxy-3-methoxypentanamide] yielded a Ki of 4860 nM.

For `CO[C@@H](CC(=O)NO)[C@H](Cc1ccc(F)c(C)c1)c1ccc(Br)cc1` [Example 2-4, (3S,4R)-4-(4-bromophenyl)-5-(4-fluoro-3-methylphenyl)-N-hydroxy-3-methoxypentanamide], the affinity corresponds to a Ki of 145 nM.

In the case of `CCO[C@H](CC(=O)NO)[C@H](Cc1ccc(Cl)cc1)c1ccccc1` [Example 3-1, (3R,4R)-5-(4-chlorophenyl)-3-ethoxy-N-hydroxy-4-phenylpentanamide], the affinity corresponds to a Ki of 15.5 nM.

`O=C(CC[C@H](Cc1ccc(Cl)cc1)c1ccccc1)NO` [Example 3-2] returned a Ki of 2700 nM.

On to `O=C(CC[C@H](Cc1ccc(Cl)cc1)c1ccc(Br)cc1)NO` [Example 3-3], for which affinity was put at a Ki of 915 nM.

Turning to `CO[C@H](CC(=O)NO)[C@H](Cc1ccc(Cl)cc1)c1ccc(Cl)cc1` [Example 3-4, (3R,4R)-4,5-bis(4-chlorophenyl)-N-hydroxy-3-methoxypentanamide], the Ki turned out to be 4.8 nM.

`CO[C@H](CC(=O)NO)[C@H](Cc1ccc(Cl)cc1)c1ccc(F)cc1` [Example 3-5, (3R,4R)-5-(4-chlorophenyl)-4-(4-fluorophenyl)-N-hydroxy-3-methoxypentanamide] came in with a Ki of 5.2 nM.

Turning to `CCO[C@H](CC(=O)NO)[C@H](Cc1ccc(Cl)cc1)c1ccc(Br)cc1` [Example 3-6, (3R,4R)-4-(4-bromophenyl)-5-(4-chlorophenyl)-3-ethoxy-N-hydroxypentanamide], the affinity corresponds to a Ki of 2 ± 0.42 nM.

Regarding `CCO[C@@H](CC(=O)NO)[C@H](Cc1ccc(Cl)cc1)c1ccc(Br)cc1` [Example 3-7, (3S,4R)-4-(4-bromophenyl)-5-(4-chlorophenyl)-3-ethoxy-N-hydroxypentanamide], the Ki stood at 73 nM.

In turn, `CO[C@H](CC(=O)NO)[C@H](Cc1ccc(Cl)cc1)c1ccc(Br)cc1` [Example 3-8, (3R,4R)-4-(4-bromophenyl)-5-(4-chlorophenyl)-N-hydroxy-3-methoxypentanamide] had a Ki of 1.75 nM.

For the compound `C=Cc1ccc([C@@H](Cc2ccc(Cl)cc2)[C@@H](CC(=O)NO)OCC)cc1` [Example 3-9, (3R,4R)-5-(4-chlorophenyl)-3-ethoxy-N-hydroxy-4-(4-vinylphenyl)pentanamide], the Ki was determined as 3.2 nM.

`CCO[C@H](CC(=O)NO)[C@H](Cc1ccc(Cl)cc1)c1ccc(CO)cc1` [Example 3-10, (3R,4R)-5-(4-chlorophenyl)-3-ethoxy-N-hydroxy-4-(4-(hydroxymethyl)phenyl)pentanamide] returned a Ki of 2.7 nM.

`CO[C@H](CC(=O)NO)[C@H](Cc1ccc(Cl)cc1)c1ccc(CO)cc1` [Example 3-11, (3R,4R)-5-(4-chlorophenyl)-N-hydroxy-4-(4-(hydroxymethyl)phenyl)-3-methoxypentanamide] registered a Ki of 9.7 nM.

`CCO[C@H](CC(=O)NO)[C@H](Cc1ccc(Cl)cc1)c1ccc(C2(C)CO2)cc1` (stereo partly drawn) [Example 3-12, (3R,4R)-5-(4-chlorophenyl)-3-ethoxy-N-hydroxy-4-(4-(2-methyloxiran-2-yl)phenyl)pentanamide] returned a Ki of 9.6 nM.

Regarding `CCCCOCc1ccc([C@@H](Cc2ccc(Cl)cc2)[C@@H](CC(=O)NO)OC)cc1` [Example 3-13], the Ki came to 24.9 nM.

With `CCO[C@H](CC(=O)NO)[C@H](Cc1ccc(Cl)cc1)c1ccc(COCOC)cc1` [Example 3-14], affinity was put at a Ki of 21.2 nM.

`CCO[C@H](CC(=O)NO)[C@H](Cc1ccc(Cl)cc1)c1ccc(COCOCCOC)cc1` [Example 3-15] returned a Ki of 30 nM.

The compound `CCO[C@H](CC(=O)NO)[C@H](Cc1ccc(Cl)cc1)c1ccc(CN2CCOCC2)cc1` [Example 3-16, (3R,4R)-5-(4-chlorophenyl)-3-ethoxy-N-hydroxy-4-(4-(morpholinomethyl)phenyl) pentanamide] yielded a Ki of 10.1 ± 2.4 nM.

For the compound `CCO[C@H](CC(=O)NO)[C@H](Cc1ccc(Cl)cc1)c1ccc(CN2CCN(C(=O)OC(C)(C)C)CC2)cc1` [Example 3-17, tert-butyl 4-(4-((2R,3R)-1-(4-chlorophenyl)-3-ethoxy-5-(hydroxyamino)-5-oxopentan-2-yl)benzyl)piperazine-1-carboxylate], affinity was put at a Ki of 8.5 nM.

`CCO[C@H](CC(=O)NO)[C@H](Cc1ccc(Cl)cc1)c1ccc(CN2CCNCC2)cc1` [Example 3-18, (3R,4R)-5-(4-chlorophenyl)-3-ethoxy-N-hydroxy-4-(4-(piperazin-1-ylmethyl)phenyl)pentanamide] returned a Ki of 13.5 ± 2.8 nM.

`CCO[C@H](CC(=O)NO)[C@H](Cc1ccc(Cl)cc1)c1ccc(CN2CCCCC2)cc1` [Example 3-19, (3R,4R)-5-(4-chlorophenyl)-3-ethoxy-N-hydroxy-4-(4-(piperidin-1-ylmethyl)phenyl)pentanamide] displayed a Ki of 19.5 nM.

Regarding `CO[C@H](CC(=O)NO)[C@H](Cc1ccc(Cl)cc1)c1ccc(CN2CCCCC2)cc1` [Example 3-20, (3R,4R)-5-(4-chlorophenyl)-N-hydroxy-3-methoxy-4-(4-(piperidin-1-ylmethyl)phenyl)pentanamide], the Ki stood at 37 nM.

Turning to `CCO[C@H](CC(=O)NO)[C@H](Cc1ccc(Cl)cc1)c1ccc(N(C)CCO)cc1` [Example 3-21, (3R,4R)-5-(4-chlorophenyl)-3-ethoxy-N-hydroxy-4-(4-((2-hydroxyethyl)(methyl)amino)phenyl)pentanamide], the affinity corresponds to a Ki of 8.5 nM.

With `CCO[C@H](CC(=O)NO)[C@H](Cc1ccc(Cl)cc1)c1ccc(N2CCNCC2)cc1` [Example 3-22, (3R,4R)-5-(4-chlorophenyl)-3-ethoxy-N-hydroxy-4-(4-(piperazin-1-yl)phenyl)pentanamide], the Ki was 13.5 nM.

For the compound `CCO[C@H](CC(=O)NO)[C@H](Cc1ccc(Cl)cc1)c1ccc(N2CCOCC2)cc1` [Example 3-23, (3R,4R)-5-(4-chlorophenyl)-3-ethoxy-N-hydroxy-4-(4-morpholinophenyl)pentanamide], the affinity, expressed as Ki, was 10 nM.

For the compound `CCO[C@H](CC(=O)NO)[C@H](Cc1ccc(Cl)cc1)c1ccc(-c2cccn2C(=O)OC(C)(C)C)cc1` [Example 3-24, tert-butyl 2-(4-((2R,3R)-1-(4-chlorophenyl)-3-ethoxy-5-(hydroxyamino)-5-oxopentan-2-yl)phenyl)-1H-pyrrole-1-carboxylate], affinity was put at a Ki of 8.8 nM.

In the case of `CCO[C@H](CC(=O)NO)[C@H](Cc1ccc(Cl)cc1)c1ccc(-c2ccc[nH]2)cc1` [Example 3-25, (3R,4R)-4-(4-(1H-pyrrol-2-yl)phenyl)-5-(4-chlorophenyl)-3-ethoxy-N-hydroxypentanamide], the Ki is 8 nM.

Compound `CCO[C@H](CC(=O)NO)[C@H](Cc1ccc(Cl)cc1)c1ccc(-c2cncnc2)cc1` [Example 3-26, (3R,4R)-5-(4-chlorophenyl)-3-ethoxy-N-hydroxy-4-(4-(pyrimidin-5-yl)phenyl)pentanamide] registered a Ki of 3.7 nM.

For the compound `CCO[C@H](CC(=O)NO)[C@H](Cc1ccc(Cl)cc1)c1ccc(-c2cnc(N(C)C)nc2)cc1` [Example 3-27, (3R,4R)-5-(4-chlorophenyl)-4-(4-(2-(dimethylamino)pyrimidin-5-yl)phenyl)-3-ethoxy-N-hydroxypentanamide], the affinity corresponds to a Ki of 5.3 nM.

For the compound `CCO[C@H](CC(=O)NO)[C@H](Cc1ccc(Cl)cc1)c1ccc(-c2c(C)nn(C)c2C)cc1` [Example 3-28, (3R,4R)-5-(4-chlorophenyl)-3-ethoxy-N-hydroxy-4-(4-(1,3,5-trimethyl-1H-pyrazol-4-yl)phenyl)pentanamide], the Ki is 3.7 nM.

With `CCO[C@H](CC(=O)NO)[C@H](Cc1ccc(Cl)cc1)c1ccc(-n2ccnc2)cc1` [Example 3-29, (3R,4R)-4-(4-(1H-imidazol-1-yl)phenyl)-5-(4-chlorophenyl)-3-ethoxy-N-hydroxypentanamide], affinity was put at a Ki of 3.6 nM.

The compound `CCO[C@H](CC(=O)NO)[C@H](Cc1ccc(Cl)cc1)c1ccc(-c2ccncc2)cc1` [Example 3-30, (3R,4R)-5-(4-chlorophenyl)-3-ethoxy-N-hydroxy-4-(4-(pyridin-4-yl)phenyl)pentanamide] showed a Ki of 4.5 nM.

As to `CCO[C@H](CC(=O)NO)[C@H](Cc1ccc(Cl)cc1)c1ccc(C(=O)NO)cc1` [Example 4-1, 4-((2R,3R)-1-(4-chlorophenyl)-3-ethoxy-5-(hydroxyamino)-5-oxopentan-2-yl)-N-hydroxybenzamide], the Ki is 10.5 nM.

The compound `CCCN(CCC)C(=O)c1ccc([C@@H](Cc2ccc(Cl)cc2)[C@@H](CC(=O)NO)OCC)cc1` [Example 4-2, 4-((2R,3R)-1-(4-chlorophenyl)-3-ethoxy-5-(hydroxyamino)-5-oxopentan-2-yl)-N,N-dipropylbenzamide] came in with a Ki of 3.9 nM.

Compound `CCO[C@H](CC(=O)NO)[C@H](Cc1ccc(Cl)cc1)c1ccc(C(=O)N2CCCCC2)cc1` [Example 4-3, (3R,4R)-5-(4-chlorophenyl)-3-ethoxy-N-hydroxy-4-(4-(piperidine-1-carbonyl)phenyl)pentanamide] displayed a Ki of 4.3 ± 2 nM.
